From patent publication US20140193827A1 (TEVA PHARMACEUTICAL INDUSTRIES, LTD., priority 2013, published 2014)

Tested on: GA-primed murine splenocytes
Experiment: ANOVA-based pattern identification method
Format: cell-based, mouse
Excerpt: We sought to identify probes matching specific patterns of expression across experimental conditions using a technique that referred to as the ANOVA-based Pattern Identification Method.
To carry out the analysis in a general manner, we computed the 6 p-values required to do pairwise comparisons of all 4 conditions for all probes using the ANOVA1 function in MATLAB. We then identified sets of probes matching the desired pattern. In the example above, probes were identified as being only affected by PG if their 6 pairwise comparison pvalues matched the following pattern (pGA-PG<0.05, pPG-reference standard<0.05, pPG-Medium<0.05, pGAMedium>0.05, pGA-reference standard>0.05, preference standard-Medium>0.05).

glatiramer acetate [GA]
FYB expression level (UP IN GA AND REF ONLY): 8.25
GNL3L expression level (UP IN GA AND REF ONLY): 7.689
GPC3 expression level (UP IN GA AND REF ONLY): 5.696
GPI1 expression level (UP IN GA AND REF ONLY): 11.7829
GREM2 expression level (UP IN GA AND REF ONLY): 6.036
GTF3C5 expression level (UP IN GA AND REF ONLY): 5.928
GTL7 expression level (UP IN GA AND REF ONLY): 7.434
H2-T23 expression level (UP IN GA AND REF ONLY): 10.78
H2AFZ expression level (UP IN GA AND REF ONLY): 11.93
HEATR3 expression level (UP IN GA AND REF ONLY): 5.853
HIST1H2AG expression level (UP IN GA AND REF ONLY): 10.07
HIST1H2AK expression level (UP IN GA AND REF ONLY): 12.78
HNRNPK expression level (UP IN GA AND REF ONLY): 10.05
IL1F10 expression level (UP IN GA AND REF ONLY): 6.065
INPP4B expression level (UP IN GA AND REF ONLY): 6.314
KLRA1 expression level (UP IN GA AND REF ONLY): 5.834
KRT25 expression level (UP IN GA AND REF ONLY): 5.8
LOC235279 expression level (UP IN GA AND REF ONLY): 5.818
LOC244219 expression level (UP IN GA AND REF ONLY): 5.958
LOC331243 expression level (UP IN GA AND REF ONLY): 5.641
LOC380707 expression level (UP IN GA AND REF ONLY): 10.02
LOC381093 expression level (UP IN GA AND REF ONLY): 5.885
LOC383306 expression level (UP IN GA AND REF ONLY): 5.921
LOC383433 expression level (UP IN GA AND REF ONLY): 5.667
LOC383706 expression level (UP IN GA AND REF ONLY): 8.36
LOC384585 expression level (UP IN GA AND REF ONLY): 5.764
LOC384990 expression level (UP IN GA AND REF ONLY): 5.909
LOC386161 expression level (UP IN GA AND REF ONLY): 5.652
LOC628101 expression level (UP IN GA AND REF ONLY): 6.566
LOC667005 expression level (UP IN GA AND REF ONLY): 7.02
LOC100040244 expression level (UP IN GA AND REF ONLY): 7.257
LOC100040854 expression level (UP IN GA AND REF ONLY): 5.619
LOC100041450 expression level (UP IN GA AND REF ONLY): 6.953
LOC100043391 expression level (UP IN GA AND REF ONLY): 14.29
LOC100044190 expression level (UP IN GA AND REF ONLY): 10.67
LOC100046320 expression level (UP IN GA AND REF ONLY): 7.704
LOC100047009 expression level (UP IN GA AND REF ONLY): 6.027
LOC100048816 expression level (UP IN GA AND REF ONLY): 5.928
LSG1 expression level (UP IN GA AND REF ONLY): 7.278
MAD2L1BP expression level (UP IN GA AND REF ONLY): 9.971
MIER2 expression level (UP IN GA AND REF ONLY): 5.885
MX2 expression level (UP IN GA AND REF ONLY): 8.083
MYNN expression level (UP IN GA AND REF ONLY): 5.819
NCDN expression level (UP IN GA AND REF ONLY): 5.87
NEO1 expression level (UP IN GA AND REF ONLY): 6.159
NPC2 expression level (UP IN GA AND REF ONLY): 9.575
NUDCD2 expression level (UP IN GA AND REF ONLY): 7.102
OLFR701 expression level (UP IN GA AND REF ONLY): 5.738
OS9 expression level (UP IN GA AND REF ONLY): 9.621
OTTMUSG00000005523 expression level (UP IN GA AND REF ONLY): 6.96
PARP14 expression level (UP IN GA AND REF ONLY): 11.13
PCDHGC5 expression level (UP IN GA AND REF ONLY): 6.075
PDIA2 expression level (UP IN GA AND REF ONLY): 5.846
PDLIM1 expression level (UP IN GA AND REF ONLY): 9.528
PIBF1 expression level (UP IN GA AND REF ONLY): 6.957
PIGN expression level (UP IN GA AND REF ONLY): 5.83
PJA1 expression level (UP IN GA AND REF ONLY): 6.736
PK3 expression level (UP IN GA AND REF ONLY): 6.316
PLEKHF2 expression level (UP IN GA AND REF ONLY): 8.247
PLXNC1 expression level (UP IN GA AND REF ONLY): 6.506
PPP1CB expression level (UP IN GA AND REF ONLY): 7.717
PPP2R5C expression level (UP IN GA AND REF ONLY): 10.04
PSEN2 expression level (UP IN GA AND REF ONLY): 5.995
PTPN1 expression level (UP IN GA AND REF ONLY): 9.292
PUM2 expression level (UP IN GA AND REF ONLY): 8.717
RAB6 expression level (UP IN GA AND REF ONLY): 7.499
RAB33A expression level (UP IN GA AND REF ONLY): 6.093
RBM14 expression level (UP IN GA AND REF ONLY): 6.157
RN185 expression level (UP IN GA AND REF ONLY): 9.959
RNF8 expression level (UP IN GA AND REF ONLY): 6.852
RNF19A expression level (UP IN GA AND REF ONLY): 5.962
RNGTT expression level (UP IN GA AND REF ONLY): 6.302
RPL37 expression level (UP IN GA AND REF ONLY): 5.765
SAMHD1 expression level (UP IN GA AND REF ONLY): 12.05
SCL0002368.1_75 expression level (UP IN GA AND REF ONLY): 9.053
SELP expression level (UP IN GA AND REF ONLY): 6.569
SLC30A8 expression level (UP IN GA AND REF ONLY): 5.652
SLCO3A1 expression level (UP IN GA AND REF ONLY): 6.151
SLFN9 expression level (UP IN GA AND REF ONLY): 5.598
SPNB2 expression level (UP IN GA AND REF ONLY): 5.753
STAT3 expression level (UP IN GA AND REF ONLY): 11.07
STIL expression level (UP IN GA AND REF ONLY): 5.727
TELO2 expression level (UP IN GA AND REF ONLY): 5.873
TMPO expression level (UP IN GA AND REF ONLY): 8.63
TNP2 expression level (UP IN GA AND REF ONLY): 5.959
TOP2A expression level (UP IN GA AND REF ONLY): 7.085
TOR1A expression level (UP IN GA AND REF ONLY): 7.512
TPM4 expression level (UP IN GA AND REF ONLY): 7.481
TRAPPC2 expression level (UP IN GA AND REF ONLY): 5.833
TRMT2A expression level (UP IN GA AND REF ONLY): 6.694
TSPAN14 expression level (UP IN GA AND REF ONLY): 9.848
TTLL4 expression level (UP IN GA AND REF ONLY): 5.973
UBE2Z expression level (UP IN GA AND REF ONLY): 6.169
USF1 expression level (UP IN GA AND REF ONLY): 6.915
V1RD18 expression level (UP IN GA AND REF ONLY): 5.691
VMN2R81 expression level (UP IN GA AND REF ONLY): 5.992
VMN2R89 expression level (UP IN GA AND REF ONLY): 6.242
VPS37B expression level (UP IN GA AND REF ONLY): 10.56
WAPAL expression level (UP IN GA AND REF ONLY): 6.423
WDR45L expression level (UP IN GA AND REF ONLY): 7.365
ZDHHC21 expression level (UP IN GA AND REF ONLY): 8.562
ZFP277 expression level (UP IN GA AND REF ONLY): 9.951
ZFP281 expression level (UP IN GA AND REF ONLY): 8.974
ZFP800 expression level (UP IN GA AND REF ONLY): 6.783
ZNF24 expression level (UP IN GA AND REF ONLY): 6.171
ZWILCH expression level (UP IN GA AND REF ONLY): 6.29
ZZZ3 expression level (UP IN GA AND REF ONLY): 6.181
5YNGR1 expression (UP IN generic ONLY): 5.954
1200003C05RIK expression (UP IN generic ONLY): 9.103
1200011M11RIK expression (UP IN generic ONLY): 6.322
1700021P22RIK expression (UP IN generic ONLY): 6.037
1700029G01RIK expression (UP IN generic ONLY): 6.738
1700063H04RIK expression (UP IN generic ONLY): 5.82
2210010L05RIK expression (UP IN generic ONLY): 5.598
2310046A06RIK expression (UP IN generic ONLY): 5.634
2310051M13RIK expression (UP IN generic ONLY): 5.609
2600005J22RIK expression (UP IN generic ONLY): 5.732
2610209A20RIK expression (UP IN generic ONLY): 6.008
2810046M22RIK expression (UP IN generic ONLY): 5.995
2810453I06RIK expression (UP IN generic ONLY): 8.506
2900090M10RIK expression (UP IN generic ONLY): 5.695
3110070M22RIK expression (UP IN generic ONLY): 6.16
4930430K04RIK expression (UP IN generic ONLY): 5.499
4930432K21RIK expression (UP IN generic ONLY): 6.593
4930471I01RIK expression (UP IN generic ONLY): 5.854
4930481A15RIK expression (UP IN generic ONLY): 5.879
4930543G11RIK expression (UP IN generic ONLY): 5.775
